The assay relates to E. coli ATCC 25922. As to the kind of experiment: Minimum inhibitory concentration (NCCLS M7-A2) for reference strain. It is filed as cell-based. The note with it: reference strain ATCC #25922; for MIC: Escherichia coli, ATCC25922.

Values after ≈ are worked out from the molar mass of the structure shown.

A word on the MIC: it is the lowest concentration that inhibits growth of the organism. Read a high MIC as weaker potency. `C=CC1=C(C(=O)O)N2C(=O)[C@@H](NC(=O)/C(=N\OCC(=O)O)c3csc(N)n3)[C@H]2SC1` [Cefixime] came in with an MIC of 0.96 µg/mL (≈ 2.12 µM). For the molecule `O=C(O)c1cn(C2CC2)c2cc(N3CCNCC3)c(F)cc2c1=O` [Ciprofloxacin], the MIC came out at 0.0384 µg/mL (≈ 0.116 µM). Against the preceding molecule, the MIC is about 25-fold lower. Consider `CO[C@@]12[C@H](COC(N)=O)C3=C(C(=O)C(C)=C(N)C3=O)N1C[C@@H]1N[C@@H]12` [Mitomycin-C], for which the “Minimum Inhibitory Concentration” value amounted to 9.6 µg/mL. For the molecule `CN(C)[C@@H]1C(O)=C(C(N)=O)C(=O)[C@@]2(O)C(O)=C3C(=O)c4c(O)cccc4[C@@](C)(O)[C@H]3C[C@@H]12` [Tetracycline], 1.92 µg/mL (≈ 4.32 µM) was the least that counted as inhibitory (MIC).

The values are drawn from US20010018065A1, “Compounds and methods for the treatment of bacterial dysentery using antibiotics and toxin binding oligosaccharide compositions” (priority 1998, published 2001).
